Tests used:
[1] = target: CDK7/cyclin H/MAT1 complex (Homo sapiens (Human), UniProt P50613); experiment: In vitro enzymatic inhibitory activity test, CDK7; type: biochemical; conditions: Caliper mobility shift, 180 min at 27° C.
Method: (§1) CDK7/CyclinH was diluted in a test buffer solution (20 mM MES PH6.75, 0.01% Tween20, 50 ug/mL BSA, 6 mM MgCl2) to obtain a corresponding enzyme solution with a 2.4× concentration. CDK2/CyclinE1 was diluted in a test buffer solution (20 mM MES PH6.75, 0.01% Tween20, 50 ug/mL BSA, 6 mM MgCl2) to obtain a corresponding enzyme solution with a 2.4× concentration. CDK9/CyclinT1 was diluted in a test buffer solution (20 mM MES PH6.75, 0.01% Tween20, 50 ug/mL BSA, 10 mM MgCl2) to obtain a corresponding enzyme solution with a 2.4× concentration. CDK12/CyclinK was diluted in a test buffer solution (80 mM MES PH6.5, 0.01% Tween20, 50 ug/mL BSA, 10 mM MgCl2) to obtain a corresponding enzyme solution with a 2.4× concentration. The compounds were dissolved in dimethyl sulfoxide (DMSO) at a concentration of 10 mM. […] 2 ul of a test compound solution was mixed with 5 ul of enzyme solution. After incubating for 10 min, 5 ul of the mixed solution of the polypeptide substrate and ATP was added. After incubating at 27° C. for 180 min, 4 uL of EDTA with a 120 mM concentration was added to each sample to stop the reaction. […] A CDK9/cyclin TI complex (8 nM) and a “5-FAM-CDK9tide” peptide substrate (2 μM, synthetic fluorophore labeled peptide having the following sequence: 5-FAM-GSRTPMY-NH2, where 5-FAM was as defined above, and NH2 represented C-terminal amide) were used for testing the CDK9 inhibition. […] A CDK2/cyclin E1 complex (0.5 nM) and the “5-FAM-CDK7tide” (2 μM) as defined above were used for testing the CDK2 inhibition.
(§2) Electrophoretic separation was performed on Caliper EZ Reader II by means of a fluorogenic substrate and a phosphorylated product to analyze the reaction mixture. Data were calculated by using GraphPad Prism version 6.0. IC50 values were adjusted by means of a nonlinear regression model using a dose-response curve.

[2] = target: CDK2/cyclin E1 complex (Homo sapiens (Human), UniProt P24941); experiment: In vitro enzymatic inhibitory activity test, CDK2; type: biochemical; conditions: Caliper mobility shift, 180 min at 27° C.
Method: CDK7/CyclinH was diluted in a test buffer solution (20 mM MES PH6.75, 0.01% Tween20, 50 ug/mL BSA, 6 mM MgCl2) to obtain a corresponding enzyme solution with a 2.4× concentration. CDK2/CyclinE1 was diluted in a test buffer solution (20 mM MES PH6.75, 0.01% Tween20, 50 ug/mL BSA, 6 mM MgCl2) to obtain a corresponding enzyme solution with a 2.4× concentration. CDK9/CyclinT1 was diluted in a test buffer solution (20 mM MES PH6.75, 0.01% Tween20, 50 ug/mL BSA, 10 mM MgCl2) to obtain a corresponding enzyme solution with a 2.4× concentration. CDK12/CyclinK was diluted in a test buffer solution (80 mM MES PH6.5, 0.01% Tween20, 50 ug/mL BSA, 10 mM MgCl2) to obtain a corresponding enzyme solution with a 2.4× concentration. […] 2 ul of a test compound solution was mixed with 5 ul of enzyme solution. After incubating for 10 min, 5 ul of the mixed solution of the polypeptide substrate and ATP was added. After incubating at 27° C. for 180 min, 4 uL of EDTA with a 120 mM concentration was added to each sample to stop the reaction. […] A CDK9/cyclin TI complex (8 nM) and a “5-FAM-CDK9tide” peptide substrate (2 μM, synthetic fluorophore labeled peptide having the following sequence: 5-FAM-GSRTPMY-NH2, where 5-FAM was as defined above, and NH2 represented C-terminal amide) were used for testing the CDK9 inhibition. […] A CDK2/cyclin E1 complex (0.5 nM) and the “5-FAM-CDK7tide” (2 μM) as defined above were used for testing the CDK2 inhibition.
as §2

[3] = test system: HCC70 cells; experiment: Cell bioactivity detection (CyQuant), HCC70; type: cell-based; conditions: Homo sapiens, HCC70, 72 h, human breast cancer cells HCC70, 72 hours
Method: (§3) Trypsinization was performed on A2780 and HCC70 cells. Cell suspensions were respectively transferred to 15 mL of centrifuge tubes and centrifuged at 800 rpm for 5 min. The supernatant was discarded. Resuspension in a fresh culture medium (RPMI 1640+10% FBS) was performed. After counting, the cells were inoculated at 2000/well in a 384-well plate (50 φL of 1640+10% FBS culture medium was added to the 2nd line and the 23rd line of the 384-well plate, and 50 μL of DPBS was added to surrounding wells). Incubation in an incubator (37° C., 5% CO2) was performed overnight.
(§4) The compound was added to the well plate the next day. The compound had the highest concentration of 10 μM and was diluted at the ratio of 1:4 to form 9 concentrations. The positive compound Paclitaxel had the highest concentration of 1 μM and was diluted at the ratio of 1:3 to form 9 concentrations. The DMSO content of each well was unified to 0.2%. A cell plate was centrifuged at 800 rpm for 30 seconds. Incubation for 72 hours in an incubator (37° C., 5% CO2) was performed. On the fourth day, a Cyquant reagent (3×) was prepared according to kit instructions. Each 384-well plate was prepared in the following proportions: DPBS: 11.568 mL, CyQuant® Direct nucleic acid stain: 72 μL, CyQuant® Direct background suppressor: 360 ILL. The plates were uniformly mixed and placed for standby application at room temperature. The cell plate was taken out and placed at room temperature to be balanced for 30 min. 25 μL of Cyquant reagent (3×) was dispensed to the cells in each well of the 384-well plates by using a Multi-drop dispenser. Incubation at 37° C. for 60 or more minutes was performed. The plates were read by Acumen (Acumen was configured to have a 488 nm excitation wavelength). IC50 results were analyzed by XLFIT5 of the IDBS company.

[4] = test system: A2780 cells; experiment: Cell bioactivity detection (CyQuant), A2780; type: cell-based, human; conditions: Homo sapiens, A2780, 72 h, ovarian carcinoma cells A2780, 72 hours
Method: as §3, §4

[5] = target: CDK9/CyclinT1 (Homo sapiens (Human), UniProt P50750); experiment: In vitro enzymatic inhibitory activity test, CDK9; type: biochemical; conditions: Caliper mobility shift, 180 min at 27° C.
CDK9/CyclinT1, sequence (P50750 whole entry, species assumed): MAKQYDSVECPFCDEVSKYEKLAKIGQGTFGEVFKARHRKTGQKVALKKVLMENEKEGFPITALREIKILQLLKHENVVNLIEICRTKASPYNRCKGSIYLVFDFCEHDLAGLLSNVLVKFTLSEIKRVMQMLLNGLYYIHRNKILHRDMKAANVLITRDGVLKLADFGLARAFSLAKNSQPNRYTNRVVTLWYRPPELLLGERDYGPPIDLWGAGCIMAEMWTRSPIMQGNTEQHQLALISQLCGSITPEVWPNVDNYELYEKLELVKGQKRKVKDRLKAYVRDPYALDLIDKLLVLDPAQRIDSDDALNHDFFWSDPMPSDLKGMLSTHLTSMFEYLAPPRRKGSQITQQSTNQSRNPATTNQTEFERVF
CDK9/CyclinT1, sequence (O60563 whole entry partner, species assumed): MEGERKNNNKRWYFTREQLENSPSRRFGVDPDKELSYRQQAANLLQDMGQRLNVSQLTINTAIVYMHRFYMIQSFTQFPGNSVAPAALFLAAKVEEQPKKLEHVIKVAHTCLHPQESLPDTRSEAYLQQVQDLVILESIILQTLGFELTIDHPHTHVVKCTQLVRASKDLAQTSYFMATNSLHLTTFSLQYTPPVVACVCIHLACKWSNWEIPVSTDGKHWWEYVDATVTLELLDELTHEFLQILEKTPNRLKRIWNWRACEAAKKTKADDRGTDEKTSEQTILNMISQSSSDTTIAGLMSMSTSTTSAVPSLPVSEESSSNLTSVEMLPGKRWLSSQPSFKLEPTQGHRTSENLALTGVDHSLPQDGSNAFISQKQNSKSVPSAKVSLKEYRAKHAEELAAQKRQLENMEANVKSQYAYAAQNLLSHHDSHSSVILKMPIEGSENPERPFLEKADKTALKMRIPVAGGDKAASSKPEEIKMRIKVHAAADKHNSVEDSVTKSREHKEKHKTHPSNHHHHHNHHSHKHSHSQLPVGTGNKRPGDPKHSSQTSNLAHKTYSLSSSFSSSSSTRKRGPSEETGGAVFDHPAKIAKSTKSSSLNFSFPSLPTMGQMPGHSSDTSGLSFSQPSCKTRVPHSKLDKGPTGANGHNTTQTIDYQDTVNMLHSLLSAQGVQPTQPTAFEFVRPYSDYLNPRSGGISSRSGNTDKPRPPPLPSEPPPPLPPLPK
Method: as §1, §2

[6] = target: CDK12(aa686-1082)/cyclin K complex (Homo sapiens (Human), UniProt Q9NYV4); experiment: In vitro enzymatic inhibitory activity test, CDK12; type: biochemical; conditions: Caliper mobility shift, 180 min at 27° C.
CDK12(aa686-1082)/cyclin K complex, sequence (Q9NYV4 686-1082, species assumed): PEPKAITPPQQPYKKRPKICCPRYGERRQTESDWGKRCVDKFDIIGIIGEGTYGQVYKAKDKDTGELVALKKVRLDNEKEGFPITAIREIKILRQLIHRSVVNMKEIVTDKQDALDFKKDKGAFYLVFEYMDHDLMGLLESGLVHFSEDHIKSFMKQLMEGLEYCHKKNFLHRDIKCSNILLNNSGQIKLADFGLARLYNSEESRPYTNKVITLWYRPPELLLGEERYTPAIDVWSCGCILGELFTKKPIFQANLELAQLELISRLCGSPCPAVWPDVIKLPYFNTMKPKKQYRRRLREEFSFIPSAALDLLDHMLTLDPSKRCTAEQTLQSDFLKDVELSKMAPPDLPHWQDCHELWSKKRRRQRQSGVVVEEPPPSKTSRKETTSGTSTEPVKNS
CDK12(aa686-1082)/cyclin K complex, sequence (O75909 whole entry partner, species assumed, the tested form may be a part): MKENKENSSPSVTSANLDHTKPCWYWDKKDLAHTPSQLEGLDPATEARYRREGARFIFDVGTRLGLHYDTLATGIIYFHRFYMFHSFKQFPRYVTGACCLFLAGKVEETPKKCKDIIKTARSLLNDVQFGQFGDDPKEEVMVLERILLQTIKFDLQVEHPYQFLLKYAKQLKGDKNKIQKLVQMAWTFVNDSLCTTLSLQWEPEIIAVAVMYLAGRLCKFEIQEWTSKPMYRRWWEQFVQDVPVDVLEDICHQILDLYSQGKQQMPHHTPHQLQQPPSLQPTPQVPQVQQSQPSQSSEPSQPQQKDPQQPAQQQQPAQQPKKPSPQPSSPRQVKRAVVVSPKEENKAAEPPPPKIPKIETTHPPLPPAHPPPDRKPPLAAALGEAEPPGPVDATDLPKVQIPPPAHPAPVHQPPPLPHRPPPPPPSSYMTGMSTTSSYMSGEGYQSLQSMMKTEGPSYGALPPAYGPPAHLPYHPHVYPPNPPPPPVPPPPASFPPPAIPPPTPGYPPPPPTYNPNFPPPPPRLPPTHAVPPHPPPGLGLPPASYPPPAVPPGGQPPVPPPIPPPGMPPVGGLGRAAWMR
Method: as §1, §2

CDK7/cyclin H/MAT1 complex, sequence (P50613 whole entry, species assumed): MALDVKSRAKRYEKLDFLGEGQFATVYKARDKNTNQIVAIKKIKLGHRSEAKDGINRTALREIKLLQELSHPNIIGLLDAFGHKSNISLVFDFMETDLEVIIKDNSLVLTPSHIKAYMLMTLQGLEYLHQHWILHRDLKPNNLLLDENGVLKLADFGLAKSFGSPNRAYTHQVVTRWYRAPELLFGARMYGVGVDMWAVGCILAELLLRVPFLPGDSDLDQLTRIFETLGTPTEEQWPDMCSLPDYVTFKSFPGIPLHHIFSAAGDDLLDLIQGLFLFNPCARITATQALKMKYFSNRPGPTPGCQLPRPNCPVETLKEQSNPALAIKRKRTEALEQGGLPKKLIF
CDK7/cyclin H/MAT1 complex, sequence (P51946 whole entry partner, species assumed): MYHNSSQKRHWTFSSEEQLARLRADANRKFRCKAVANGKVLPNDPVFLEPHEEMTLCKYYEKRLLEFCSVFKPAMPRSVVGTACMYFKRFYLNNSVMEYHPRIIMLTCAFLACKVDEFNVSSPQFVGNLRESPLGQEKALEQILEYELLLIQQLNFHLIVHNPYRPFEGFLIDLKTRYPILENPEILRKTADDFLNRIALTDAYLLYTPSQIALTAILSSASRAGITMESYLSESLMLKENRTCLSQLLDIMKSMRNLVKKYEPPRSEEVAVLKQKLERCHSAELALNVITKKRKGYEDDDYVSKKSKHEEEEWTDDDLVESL
CDK7/cyclin H/MAT1 complex, sequence (P51948 whole entry partner, species assumed): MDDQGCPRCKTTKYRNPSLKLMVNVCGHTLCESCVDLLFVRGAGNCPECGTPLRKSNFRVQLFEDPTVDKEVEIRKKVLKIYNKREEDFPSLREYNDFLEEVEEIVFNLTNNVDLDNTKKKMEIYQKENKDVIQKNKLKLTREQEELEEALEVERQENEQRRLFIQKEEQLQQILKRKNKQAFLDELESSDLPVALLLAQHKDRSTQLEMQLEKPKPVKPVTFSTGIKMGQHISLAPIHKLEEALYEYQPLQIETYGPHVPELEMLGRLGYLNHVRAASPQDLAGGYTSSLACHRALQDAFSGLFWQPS

Row | SMILES | IC50 [1] | IC50 [2] | IC50 [3] | IC50 [4] | IC50 [5] | IC50 [6]
1 | FC(F)(F)c1cnc(N[C@H]2CCCNC2)nc1-c1c[nH]c2nc(N3CCCC4(CCOCC4)C3)ccc12 [Compound 10, (S)-4-(6-(9-oxa-2-azaspiro[5.5]undecan-2-yl)-1H-pyrrolo[2,3-b]pyridin-3-yl)-N-(piperidin-3-yl)-5-(trifluoromethyl)pyrimidine-2-amine] | 27 nM | 2090 nM | 102 nM | 109 nM | 4010 nM | 823 nM
2 | FC(F)(F)c1cnc(N[C@H]2CCCNC2)nc1-c1c[nH]c2nc(N3CC4(CCOC4)C3)ccc12 [Compound 11, (S)-4-(6-(6-oxa-2-azaspiro[3.4]octan-2-yl)-1H-pyrrolo[2,3-b]pyridin-3-yl)-N-(piperidin-3-yl)-5-(trifluoromethyl)pyrimidine-2-amine] | 27.8 nM | 6450 nM | 48 nM | 41.2 nM | 4230 nM | 1950 nM
3 | C[C@@H]1OCC2(CCN(c3ccc4c(-c5nc(N[C@H]6CCCNC6)ncc5C(F)(F)F)c[nH]c4n3)CC2)[C@@H]1N [Compound 12, (3S,4S)-3-methyl-8-(3-(2-(((S)-piperidin-3-yl)amino)-5-(trifluoromethyl)pyrimidin-4-yl)-1H-pyrrol[2,3-b]pyridin-6-yl)-2-oxa-8-azaspiro[4.5]decan-4-amine] | 17.4 nM | 3790 nM | 69 nM | 90.1 nM | 2790 nM | 1170 nM
4 | FC(F)(F)c1cnc(N[C@H]2CCCNC2)nc1-c1c[nH]c2nc(N3C[C@@H]4C[C@H]3CO4)ccc12 [Compound 13, 4-(6-((1S,4S)-2-oxa-5-azabicyclo[2.2.1]heptan-5-yl)-1H-pyrrolo[2,3-b]pyridin-3-yl)-N—((S)-piperidin-3-yl)-5-(trifluoromethyl)pyrimidine-2-amine] | 7.05 nM | 2670 nM | 29 nM | 35.2 nM | 3430 nM | 2640 nM
5 | FC(F)(F)c1cnc(N[C@H]2CCCNC2)nc1-c1c[nH]c2nc(N3CC4(COC4)C3)ccc12 [Compound 14, (S)-4-(6-(2-oxa-6-azaspiro[3.3]heptan-6-yl)-1H-pyrrolo[2,3-b]pyridin-3-yl)-N-(piperidin-3-yl)-5-(trifluoromethyl)pyrimidine-2-amine] | 7.11 nM | 3290 nM | 24 nM | 11 nM | 1670 nM | 555 nM
6 | FC(F)(F)c1cnc(N[C@H]2CCCNC2)nc1-c1c[nH]c2nc(N3CCC4(CC3)COC4)ccc12 [Compound 15, (S)-4-(6-(2-oxa-7-azaspiro[3.5]nonan-7-yl)-1H-pyrrolo[2,3-b]pyridin-3-yl)-N-(piperidin-3-yl)-5-(trifluoromethyl)pyrimidine-2-amine] | 16.5 nM | 4150 nM | 12 nM | 10 nM | 3320 nM | 1120 nM
7 | FC(F)(F)c1cnc(N[C@H]2CCCNC2)nc1-c1c[nH]c2nc(N3CCC4(CCO4)CC3)ccc12 [Compound 16, (S)-4-(6-(1-oxa-7-azaspiro[3.5]nonan-7-yl)-1H-pyrrolo[2,3-b]pyridin-3-yl)-N-(piperidin-3-yl)-5-(trifluoromethyl)pyrimidine-2-amine] | 10.8 nM | 2880 nM | 13 nM | 11 nM | 3580 nM | 1230 nM
8 | FC(F)(F)c1cnc(N[C@H]2CCCNC2)nc1-c1c[nH]c2nc(N3CC4(CCCOC4)C3)ccc12 [Compound 17, (S)-4-(6-(6-oxa-2-azaspiro[3.5]nonan-2-yl)-1H-pyrrolo[2,3-b]pyridin-3-yl)-N-(piperidin-3-yl)-5-(trifluoromethyl)pyrimidine-2-amine] | 20 nM | 5480 nM | 102 nM | 212 nM | 4250 nM | 1630 nM
9 | C[C@H]1COCCN1c1ccc2c(-c3nc(N[C@H]4CCCNC4)ncc3C(F)(F)F)c[nH]c2n1 [Compound 18, 4-(6-((S)-3-methylmorpholinyl)-1H-pyrrolo[2,3-b]pyridin-3-yl)-N—((S)-piperidin-3-yl)-5-(trifluoromethyl)pyrimidine-2-amine] | 9.47 nM | 6560 nM | 6.7 nM | 7.2 nM | 2870 nM | 2290 nM
10 | C[C@@H]1COCCN1c1ccc2c(-c3nc(N[C@H]4CCCNC4)ncc3C(F)(F)F)c[nH]c2n1 [Compound 19, 4-(6-((R)-3-methylmorpholinyl)-1H-pyrrolo[2,3-b]pyridin-3-yl)-N—((S)-piperidin-3-yl)-5-(trifluoromethyl)pyrimidine-2-amine] | 159 nM | > 10000 nM | 220 nM | 185 nM | > 10000 nM | 8720 nM
11 | N#CC1CCN(c2ccc3c(-c4nc(N[C@H]5CCCNC5)ncc4C(F)(F)F)c[nH]c3n2)CC1 [Compound 20, (S)-1-(3-(2-(piperidine-3-amino)-5-(trifluoromethyl)pyrimidin-4-yl)-1H-pyrrolo[2,3-b]pyridin-6-yl)piperidine-4-nitrile] | 8.43 nM | 3280 nM | 13.7 nM | 8.3 nM | 2970 nM | 765 nM
12 | CC1(C#N)CN(c2ccc3c(-c4nc(N[C@H]5CCCNC5)ncc4C(F)(F)F)c[nH]c3n2)C1 [Compound 21, (S)-3-methyl-1-(3-(2-(piperidine-3-amino)-5-(trifluoromethyl)pyrimidin-4-yl)-1H-pyrrolo[2,3-b]pyridin-6-yl)azetidine-3-formonitrile] | 8.81 nM | 4330 nM | 27.8 nM | 19 nM | 2980 nM | 818 nM

— patent publication US20240132489A1, “AROMATIC HETEROCYCLIC COMPOUND, PHARMACEUTICAL COMPOSITION, AND USE THEREOF” (GT APEIRON THERAPEUTICS LIMITED, priority 2020, published 2024)
